PMC10698726 (Molecular Pharmaceutics, 2023)

B1: OCT1 (Homo sapiens) (protein)
chain: MPTVDDILEQVGESGWFQKQAFLILCLLSAAFAPICVGIVFLGFTPDHHCQSPGVAELSQRCGWSPAEELNYTVPGLGPAGEAFLGQCRRYEVDWNQSALSCVDPLASLATNRSHLPLGPCQDGWVYDTPGSSIVTEFNLVCADSWKLDLFQSCLNAGFLFGSLGVGYFADRFGRKLCLLGTVLVNAVSGVLMAFSPNYMSMLLFRLLQGLVSKGNWMAGYTLITEFVGSGSRRTVAIMYQMAFTVGLVALTGLAYALPHWRWLQLAVSLPTFLFLLYYWCVPESPRWLLSQKRNTEAIKIMDHIAQKNGKLPPADLKMLSLEEDVTEKLSPSFADLFRTPRLRKRTFILMYLWFTDSVLYQGLILHMGATSGNLYLDFLYSALVEIPGAFIALITIDRVGRIYPMAMSNLLAGAACLVMIFISPDLHWLNIIIMCVGRMGITIAIQMICLVNAELYPTFVRNLGVMVCSSLCDIGGIITPFIVFRLREVWQALPLILFAVLGLLAAGVTLLLPETKGVALPETMKDAENLGRKAKPKENTIYLKVQTSEPSGT

Tests used:
OCT2 = system: OCT2; design: method as in PMID 34884800; details: cited from earlier work
OCT1 = system: OCT1; design: method as in PMID 34884800; details: cited from earlier work
[1] = substrate: CCC(CO)NCCNC(CC)CO; test: cells, lysate or membranes named; details: other: OCT1, 2 min uptake, this study

Molecule | difference in the inhibition of OCT2 between enantiomers (OCT2) | difference in the inhibition of OCT1 between enantiomers (OCT1) | Km [1] [µM] | Vmax [1] [µmol/min/mg]
CCCC(C(=O)c1ccccc1)N1CCCC1 (stereo not drawn) [α-pyrrolidinovalerophenone] | no difference | twofold difference | – | –
B1 | – | – | 167 | 0.00235
